Target: HPK1 (Homo sapiens (Human), UniProt Q92918)
Experiment: HPK1 Kinase Binding Assay
Conditions: LanthaScreen tracer 222 binding, active HPK1, 1 h at 25° C.
Method: A stock solution of 1 mM test compound was prepared in DMSO. The compound plate was prepared by 3-fold and 11-point serial dilutions. 0.1 μL of the compound in DMSO was transferred from the compound plate to the white 384 well polystyrene plates. The assay buffer contained 50 mM HEPES, pH 7.5, 0.01% Tween-20, 5 mM MgCl2, 0.01% BSA, and 5 mM DTT. 5 μL of 4 nM active HPK1 (SignalChem M23-11G) prepared in the buffer was added to the plate. The enzyme concentration given was based on the given stock concentration reported by the vender. […] After one hour incubation at 25° C., the plates were read on a PHERAstar FS plate reader (BMG Labtech). Ki values were determined.

HPK1, sequence (Q92918 1-346 limits assumed): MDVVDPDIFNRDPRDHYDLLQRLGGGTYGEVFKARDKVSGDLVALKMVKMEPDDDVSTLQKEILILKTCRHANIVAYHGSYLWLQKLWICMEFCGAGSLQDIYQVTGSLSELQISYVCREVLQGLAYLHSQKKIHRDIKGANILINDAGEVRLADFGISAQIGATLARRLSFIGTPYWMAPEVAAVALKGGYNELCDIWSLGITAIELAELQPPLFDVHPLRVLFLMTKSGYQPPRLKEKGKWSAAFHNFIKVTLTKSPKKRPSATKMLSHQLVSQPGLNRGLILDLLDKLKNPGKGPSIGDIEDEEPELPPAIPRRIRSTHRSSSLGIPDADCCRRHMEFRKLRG

Ki: < 100 nM
Compound: COc1cccc(F)c1-c1nccc(C(=O)Nc2cc(F)c3nn(C)cc3c2N2CCC[C@@H]2CN)n1 (single isomer, unassigned; peak 1) [10, Peak 1]

Reference: patent US11492354B2, “Indazole compounds and uses thereof” (Incyte Corporation, priority 2018, dated 2022)
